Assay results reported in ChEMBL document CHEMBL1201862, “PubChem BioAssay data set” (2004).
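A five-concentration, 48-hour dose response in 96-well plates underlies each endpoint, interpolated linearly between surrounding concentrations. GI50 marks 50% less growth.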 Calls of active or inactive are those of the source. Rule as the data show it: active = GI50 up to about 1.1 µM and inactive = higher.

Columns and labels:
Assay in all cases: DTP human tumour cell line panel, 48 h
[1] = tested on: 786-0
[2] = tested on: T47D
[3] = tested on: MDA-N
[4] = tested on: HL-60
[5] = tested on: HOP-92
[6] = tested on: BT-549
[7] = tested on: Malme-3M
[8] = tested on: EKVX
[9] = tested on: CAKI-1
[10] = tested on: NCI-H23
[11] = tested on: HCT-116
[12] = tested on: UO-31
[13] = tested on: MOLT-4
[14] = tested on: HOP-62
[15] = tested on: SNB-75
[16] = tested on: K562
[17] = tested on: MDA-MB-435
[18] = tested on: UACC-257
[19] = tested on: OVCAR-5
[20] = tested on: SK-MEL-5

Row | SMILES | GI50 [1] | GI50 [2] | GI50 [3] | GI50 [4] | GI50 [5] | GI50 [6] | GI50 [7] | GI50 [8] | GI50 [9] | GI50 [10] | GI50 [11] | GI50 [12] | GI50 [13] | GI50 [14] | GI50 [15] | GI50 [16] | GI50 [17] | GI50 [18] | GI50 [19] | GI50 [20]
1 | C=C1C(=O)OC2CC(C)C(C(O)CC(C)O)=CCC12 (stereo not given) | 13.7 µM (inactive) | 7.08 µM (inactive) | 12.4 µM (inactive) | 3.08 µM (inactive) | 12 µM (inactive) | 13.4 µM (inactive) | 7.74 µM (inactive) | 12.5 µM (inactive) | 4.3 µM (inactive) | 15.6 µM (inactive) | 8.71 µM (inactive) | 16.2 µM (inactive) | 14 µM (inactive) | 26.2 µM (inactive) | 18.3 µM (inactive) | 14.1 µM (inactive) | 19.6 µM (inactive) | 12.9 µM (inactive) | 15 µM (inactive) | 19.4 µM (inactive)
2 | COC(=O)c1c(OC(C)=O)ccc2c1c1c(n2Cc2ccccc2)C(=O)c2ccccc2C1=O | 25.6 µM (inactive) | 20 µM (inactive) | 18.7 µM (inactive) | 25.8 µM (inactive) | 21.4 µM (inactive) | 23.2 µM (inactive) | 30 µM (inactive) | 19.6 µM (inactive) | 22 µM (inactive) | 19.5 µM (inactive) | 15.7 µM (inactive) | 37.2 µM (inactive) | 16.8 µM (inactive) | 24.1 µM (inactive) | 22.2 µM (inactive) | 25.7 µM (inactive) | 18.7 µM (inactive) | 10.7 µM (inactive) | 20.1 µM (inactive) | 14.2 µM (inactive)
3 | O=C(Nc1ccc2ccccc2c1)c1cc2cc(CCl)ccc2oc1=O | 39.4 µM (inactive) | > 100 µM (inactive) | > 100 µM (inactive) | > 100 µM (inactive) | 51.5 µM (inactive) | 44 µM (inactive) | 87.7 µM (inactive) | > 100 µM (inactive) | > 100 µM (inactive) | 19 µM (inactive) | > 100 µM (inactive) | > 100 µM (inactive) | > 100 µM (inactive) | 53.5 µM (inactive) | 15.2 µM (inactive) | 54 µM (inactive) | > 100 µM (inactive) | > 100 µM (inactive) | > 100 µM (inactive) | > 100 µM (inactive)
4 | N=C1OC(CN2CCN(c3ccccc3)CC2)CN1C(=S)Nc1ccccc1 (stereo not given) | > 100 µM (inactive) | 35.6 µM (inactive) | 84.9 µM (inactive) | 31 µM (inactive) | 21.9 µM (inactive) | 62.2 µM (inactive) | 38.9 µM (inactive) | 32.6 µM (inactive) | 95.5 µM (inactive) | 50.6 µM (inactive) | > 100 µM (inactive) | 37.2 µM (inactive) | 44.3 µM (inactive) | 45.5 µM (inactive) | 31 µM (inactive) | 33.9 µM (inactive) | 76.6 µM (inactive) | 56 µM (inactive) | 97.5 µM (inactive) | 35.8 µM (inactive)
5 | CC1=CCC[C@@H]2[C@@](C)(Cc3cc(O)ccc3O)[C@H](C)CC[C@@]12C | 6.49 µM (inactive) | 5.38 µM (inactive) | 5.53 µM (inactive) | 1.81 µM (inactive) | 4.84 µM (inactive) | 5.47 µM (inactive) | 16.4 µM (inactive) | 6.5 µM (inactive) | 11.3 µM (inactive) | 5.87 µM (inactive) | 5.13 µM (inactive) | 5.33 µM (inactive) | 3.48 µM (inactive) | 9.62 µM (inactive) | 5.47 µM (inactive) | 3.48 µM (inactive) | 5.2 µM (inactive) | 11.5 µM (inactive) | 13.4 µM (inactive) | 5.43 µM (inactive)
6 | CCN(CC)c1ccc2c(c1)Oc1ccc(N(C(C)=O)c3ccccc3)cc1C21OC(=O)c2ccccc21 (stereo not given) | > 100 µM (inactive) | 5.32 µM (inactive) | 32.6 µM (inactive) | 8.53 µM (inactive) | > 67.3 µM (inactive) | 98.2 µM (inactive) | 53.3 µM (inactive) | 84.7 µM (inactive) | > 100 µM (inactive) | > 68.4 µM (inactive) | 36.1 µM (inactive) | 23.7 µM (inactive) | 16.7 µM (inactive) | > 100 µM (inactive) | > 59.7 µM (inactive) | 12.6 µM (inactive) | 21 µM (inactive) | > 100 µM (inactive) | > 100 µM (inactive) | 24.2 µM (inactive)
7 | Cc1ccc2c3c4c(ccc13)C(C)(C)OC4=C(C(C)C)C2=O | 66.7 µM (inactive) | 53.5 µM (inactive) | > 100 µM (inactive) | 16.6 µM (inactive) | 19.5 µM (inactive) | 26.5 µM (inactive) | 39.3 µM (inactive) | 63.5 µM (inactive) | > 100 µM (inactive) | 70.5 µM (inactive) | 53.1 µM (inactive) | > 100 µM (inactive) | 26.4 µM (inactive) | 15.6 µM (inactive) | 26.4 µM (inactive) | 59.3 µM (inactive) | 59.7 µM (inactive) | 30.5 µM (inactive) | > 100 µM (inactive) | 32.2 µM (inactive)
8 | COc1ccc(C)cc1NC(=S)N/N=C/c1ccco1 | 38 µM (inactive) | 25.4 µM (inactive) | 18.6 µM (inactive) | 22 µM (inactive) | 64.6 µM (inactive) | 53.8 µM (inactive) | 52.2 µM (inactive) | 16.7 µM (inactive) | 55.2 µM (inactive) | 53.2 µM (inactive) | 36.2 µM (inactive) | 79.3 µM (inactive) | 31.7 µM (inactive) | 48.3 µM (inactive) | 39.9 µM (inactive) | 25.9 µM (inactive) | 16 µM (inactive) | 30.9 µM (inactive) | > 100 µM (inactive) | 14.7 µM (inactive)
9 | CC(CN1NC12CCCC2)N1NC12CCCC2 (stereo not given) | > 100 µM (inactive) | > 100 µM (inactive) | > 100 µM (inactive) | > 100 µM (inactive) | > 100 µM (inactive) | > 100 µM (inactive) | > 100 µM (inactive) | > 100 µM (inactive) | > 100 µM (inactive) | > 100 µM (inactive) | > 100 µM (inactive) | > 100 µM (inactive) | > 100 µM (inactive) | > 100 µM (inactive) | > 100 µM (inactive) | > 100 µM (inactive) | > 100 µM (inactive) | 60.8 µM (inactive) | > 100 µM (inactive) | > 100 µM (inactive)
10 | COC(=O)c1ccc2c(c1)CCN2C(=O)c1cc2c(cc1Br)OCO2 | 0.74 µM (active) | 4.11 µM (inactive) | 0.0834 µM (active) | 0.198 µM (active) | 8.69 µM (inactive) | 7.18 µM (inactive) | 0.231 µM (active) | 4.66 µM (inactive) | 4.7 µM (inactive) | 1.44 µM (inactive) | 0.228 µM (active) | 2.01 µM (inactive) | 0.504 µM (active) | 3.87 µM (inactive) | 0.484 µM (active) | 0.19 µM (active) | 0.151 µM (active) | 0.305 µM (active) | > 50 µM (inactive) | 0.167 µM (active)
11 | C=CCC1(O)c2ccccc2C(=O)c2c(O)ccc(O)c21 (stereo not given) | 11.7 µM (inactive) | 7.74 µM (inactive) | 2.12 µM (inactive) | 3.06 µM (inactive) | 12.9 µM (inactive) | 6.03 µM (inactive) | 3.4 µM (inactive) | 11.4 µM (inactive) | 15.5 µM (inactive) | 10.7 µM (inactive) | 5.42 µM (inactive) | 16.8 µM (inactive) | 1.93 µM (inactive) | 12.4 µM (inactive) | 3.82 µM (inactive) | 11.1 µM (inactive) | 1.8 µM (inactive) | 5.3 µM (inactive) | 17.2 µM (inactive) | 8.2 µM (inactive)
12 | Cc1ccc(C2=Nc3c(N)nc(N)nc3NC(c3ccccc3)C2)cc1 (stereo not given) | 12 µM (inactive) | 12.6 µM (inactive) | 2.22 µM (inactive) | 3.08 µM (inactive) | 10.3 µM (inactive) | 9.46 µM (inactive) | 10.9 µM (inactive) | 13.5 µM (inactive) | 10.5 µM (inactive) | 11.3 µM (inactive) | 5.53 µM (inactive) | 12.6 µM (inactive) | 5.14 µM (inactive) | 12.5 µM (inactive) | 15.2 µM (inactive) | 4.06 µM (inactive) | 2.24 µM (inactive) | 12.2 µM (inactive) | 16.4 µM (inactive) | 10 µM (inactive)
13 | C=C1C(=O)C23CC1C[C@H](OC(C)=O)[C@H]2C1(C)C(OC(C)=O)C[C@H](O)C(C)(C)[C@H]1C(=O)[C@@H]3OC(C)=O (stereo not given in full) | 3.28 µM (inactive) | 2.72 µM (inactive) | 1.69 µM (inactive) | 2.18 µM (inactive) | 0.248 µM (active) | 2.84 µM (inactive) | 2.17 µM (inactive) | 6.84 µM (inactive) | 2.86 µM (inactive) | 3.58 µM (inactive) | 2.22 µM (inactive) | 4.93 µM (inactive) | 1.21 µM (inactive) | 25.2 µM (inactive) | 18.4 µM (inactive) | 1.95 µM (inactive) | 3.09 µM (inactive) | 2.43 µM (inactive) | 9.51 µM (inactive) | 13.9 µM (inactive)
14 | COc1ccc2c(c1)CCc1cc(OC)ccc1/[N+]([O-])=[N+]\2[O-] | 6.27 µM (inactive) | 17 µM (inactive) | 14.3 µM (inactive) | 6.11 µM (inactive) | 13.2 µM (inactive) | 14.8 µM (inactive) | 19.5 µM (inactive) | 20.8 µM (inactive) | 17.6 µM (inactive) | 23.1 µM (inactive) | 12.4 µM (inactive) | 9.08 µM (inactive) | 3.67 µM (inactive) | 21.6 µM (inactive) | 17.9 µM (inactive) | 8.91 µM (inactive) | 16.3 µM (inactive) | 18.3 µM (inactive) | 23.2 µM (inactive) | 16.3 µM (inactive)
